Entries after “also recorded” stand apart in the source; their conditions may differ. Where two headings read alike, the source gives them in different places.
Experiment: Plasma pharmacokinetics after single oral doses (SAD cohorts)
Type: in vivo, human
Conditions: for half-life / Cmax / AUC / Tmax / AUC(0-inf) / Vd/F: human, plasma; for half-life: po; for AUC: read-out: AUC24; for Vd/F: read-out: Vz/F
Procedure: The SAD portion of the study used a randomized, double-blind, placebo-controlled, sequential, escalating dose design, in which participants received single ascending oral doses of the study drug. Seven cohorts were dosed in sequence (Figure 1).
For all study groups, blood samples for PK assessment were obtained predose, up to 12 times daily on day 1, and then at regular intervals throughout the study (see Supplemental Appendix for details). Standard noncompartmental methods were used to calculate PK parameters using Phoenix WinNonlin, version 7.0; actual sample collection times were used.
Statistical A nalysis of P harm acokinetic (PK) P aram eters
The PK analyses w ere int ended to assess single- dose kinetics, multiple-dose (steady state) […]
and the influence of food on the absorption and eli mination of aficamten.
For the SAD cohort, dos e proportionality of afi camten was evaluat ed using a power model on […]
and day 14 or 17. Several considerations were taken into account when assessing dose proportionality of the drug, such as results derived from the power model statistical analysis (e.g., the slope estimate and width of the 2- sided 95% confidence intervals [CIs ]), qualitative assessment specific to th e PK of the drug, and clinical relev ance. For th e SAD cohort, the […]
time curve (A UC)from time 0 to the time of the last measurable concentration(AUC last), AUC […]
plasma concent ration ( C max). […]
The statistical linear relationship between the ln-transformed PK parameters and the ln-transformed dos e was verified by including the quadratic (ln Dos e)2 and cubic (ln Dose) 3 effects.
The statistical linear relationship was established if the quadratic and cubi c effects were not […]
significant, but of such small magnitude that they were not clinically relevant. The dose-proportionality analysis was performed using SAS® PROC MIXED.

[1] = single oral dose 1 mg, geometric mean (geometric CV%), n = 6
[2] = single oral dose 3 mg, geometric mean (geometric CV%), n = 6
[3] = single oral dose 3 mg, mean ± SD, n = 5
[4] = single oral dose 10 mg, mean ± SD, n = 4
[5] = single oral dose 25 mg, geometric mean (geometric CV%), n = 6
[6] = single oral dose 25 mg, mean ± SD, n = 6
[7] = single oral dose 40 mg, geometric mean (geometric CV%), n = 6
[8] = single oral dose 40 mg, mean ± SD, n = 5
[9] = single oral dose 50 mg, geometric mean (geometric CV%), n = 11
[10] = single oral dose 50 mg, mean ± SD, n = 9

With `CCc1nc(-c2ccc3c(c2)CC[C@H]3NC(=O)c2cnn(C)c2)no1` [Aficamten] the half-life (3 mg, single oral dose 3 mg, mean ± SD, n = 5, read-out: t1/2 (converted)) was 75.1 ± 21.8 h, the half-life (10 mg, single oral dose 10 mg (extensive metabolizers), mean ± SD, n = 4, read-out: t1/2 (converted)) was 85 h and the half-life (25 mg, single oral dose 25 mg, mean ± SD, n = 6, read-out: t1/2 (converted)) was 79.8 ± 10 h. For the same compound, the half-life (40 mg, single oral dose 40 mg, mean ± SD, n = 4, read-out: t1/2 (converted)) was 79.2 ± 18.5 h, the half-life (50 mg, single oral dose 50 mg, mean ± SD, n = 9, read-out: t1/2 (converted)) was 80.4 ± 14.9 h and the half-life (single oral doses, read-out: Mean half-life, range across single-dose cohorts) was 75 to 85 h. The Cmax [1] was 5.8 ng/mL, the AUC [1] was 50 ng·h/mL and the Tmax (single oral dose 1 mg, median (range), n = 6, read-out: Tmax) was 1 h. The AUC(0-inf) (single oral dose 3 mg, geometric mean (geometric CV%), n = 5) was 823 ng·h/mL, the Cmax [2] was 26.1 ng/mL and the AUC [2] was 174 ng·h/mL. The Vd/F [3] was 393 ± 122 L, the Tmax (single oral dose 3 mg, median (range), n = 6, read-out: Tmax) was 1.3 h and the AUC (single oral dose 10 mg (extensive metabolizers), geometric mean (geometric CV%), n = 6) was 679 ng·h/mL. The AUC(0-inf) (single oral dose 10 mg, geometric mean (geometric CV%), n = 4) was 3430 ng·h/mL, the Cmax (single oral dose 10 mg, geometric mean (geometric CV%), n = 6) was 70.5 ng/mL and the Vd/F [4] was 362 ± 108 L. It also gave a Tmax (single oral dose 10 mg, median (range), n = 6, read-out: Tmax) of 2.8 h, an AUC(0-inf) [5] of 7110 ng·h/mL and a Cmax [5] of 193 ng/mL. For the same compound, the AUC [5] was 1490 ng·h/mL, the Vd/F [6] was 405 ± 56.6 L and the Tmax (single oral dose 25 mg, median (range), n = 6, read-out: Tmax) was 1.8 h. For the same compound, the AUC(0-inf) (single oral dose 40 mg, geometric mean (geometric CV%), n = 5) was 11900 ng·h/mL, the Cmax [7] was 383 ng/mL and the AUC [7] was 2530 ng·h/mL. For the same compound, the Vd/F [8] was 382 ± 66.9 L, the Tmax (single oral dose 40 mg, median (range), n = 6, read-out: Tmax) was 1 h and the AUC(0-inf) (single oral dose 50 mg, geometric mean (geometric CV%), n = 9) was 13700 ng·h/mL. The Cmax [9] was 359 ng/mL, the AUC [9] was 2830 ng·h/mL and the Vd/F [10] was 431 ± 123 L. For the same compound, the Tmax (single oral dose 50 mg, median (range), n = 11, read-out: Tmax) was 1 h, the Tmax (single oral dose 75 mg, median (range), n = 1, read-out: Tmax) was 0.5 h and the Cmax (single oral dose 75 mg, n = 1) was 1220 ng/mL. The AUC (single oral dose 75 mg, n = 1) was 4560 ng·h/mL, the Tmax (single oral doses 1 to 75 mg, read-out: Median time to reach peak concentrations, range across doses) was 0.5 to 2.76 h and the CL/F [3] was 4.2 ± 3.1 L/h. For the same compound, the t1/2 (single oral dose 10 mg (extensive metabolizers), mean ± SD, n = 4) was 84.7 ± 17.7 h, the CL/F [4] was 3.0 ± 0.7 L/h and the CL/F [6] was 3.6 ± 0.5 L/h. The CL/F [8] was 3.4 ± 0.6 L/h, the CL/F [10] was 3.8 ± 1.1 L/h and the “Maximum time to maximum observed concentration across all participants” value (single oral doses) was 4.0 h. For the same compound, the “Dose proportionality of Cmax and exposure” value (single oral doses 1 to 50 mg) was “dose-proportional; also recorded: dose proportionality; also recorded: linear kinetics”.
